The target in test [1] is T1, Alpha-1B adrenergic receptor (Rattus norvegicus, UniProt P15823).
T1 sequence (P15823 whole entry): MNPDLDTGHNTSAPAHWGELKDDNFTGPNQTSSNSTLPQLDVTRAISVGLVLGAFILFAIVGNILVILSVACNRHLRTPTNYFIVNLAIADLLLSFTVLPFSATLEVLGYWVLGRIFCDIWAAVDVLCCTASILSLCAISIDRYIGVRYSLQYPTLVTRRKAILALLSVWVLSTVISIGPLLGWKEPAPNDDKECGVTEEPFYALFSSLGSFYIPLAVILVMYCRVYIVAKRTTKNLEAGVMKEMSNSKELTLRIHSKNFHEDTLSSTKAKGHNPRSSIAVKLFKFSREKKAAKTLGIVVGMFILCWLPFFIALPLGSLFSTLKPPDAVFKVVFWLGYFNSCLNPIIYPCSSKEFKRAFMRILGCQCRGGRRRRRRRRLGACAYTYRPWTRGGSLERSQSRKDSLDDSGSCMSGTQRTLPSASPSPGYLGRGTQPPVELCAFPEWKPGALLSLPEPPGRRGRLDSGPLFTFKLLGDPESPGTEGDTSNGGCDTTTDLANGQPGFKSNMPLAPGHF
The experiment in a line: DRUGMATRIX: Alpha-1B adrenergic receptor radioligand binding (ligand: prazosin). The class given is cell membranes, Wistar, Liver, Membrane. The conditions noted are these: Not Active = under 50% inhibition at 10 µM.

A further test addresses Glycine receptor (Rattus norvegicus, UniProt P22771+P24524+P07727+P20781). The class given is cell membranes, Wistar, Spinal cord, Membrane.
For test [2], the target named is T2, Cysteinyl leukotriene receptor 1 (Homo sapiens, UniProt Q9Y271). Note: in other assays of this panel Not Active means under 50% inhibition at 10 µM.
T2 sequence (Q9Y271 whole entry): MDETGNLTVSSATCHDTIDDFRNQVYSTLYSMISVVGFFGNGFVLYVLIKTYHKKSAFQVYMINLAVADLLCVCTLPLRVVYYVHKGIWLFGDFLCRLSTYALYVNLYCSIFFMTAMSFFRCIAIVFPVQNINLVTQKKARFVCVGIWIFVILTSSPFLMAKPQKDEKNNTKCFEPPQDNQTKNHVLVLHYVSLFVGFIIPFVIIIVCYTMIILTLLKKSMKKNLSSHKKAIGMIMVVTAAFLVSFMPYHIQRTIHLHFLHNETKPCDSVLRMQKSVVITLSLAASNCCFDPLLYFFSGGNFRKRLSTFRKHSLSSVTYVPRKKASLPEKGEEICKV
The class given is cell membranes, CHO-K1, Membrane. The conditions noted are these: cho-k1.

Another test has as its target Melanocortin receptor 3 (Homo sapiens, UniProt P41968). Format: cell membranes, HEK293, Membrane. The conditions noted are these: hek293. Note: in other assays of this panel Not Active means under 50% inhibition at 10 µM.
The target in test [3] is Tyrosine-protein kinase Lck (Homo sapiens, UniProt P06239). Put plainly: DRUGMATRIX: Protein Tyrosine Kinase, LCK enzyme inhibition (substrate: Poly(Glu:Tyr)). Format: cell-based, Insect cells. Conditions: insect cells, Not Active = under 50% inhibition at 10 µM.
Sequence of Tyrosine-protein kinase Lck (P06239 whole entry): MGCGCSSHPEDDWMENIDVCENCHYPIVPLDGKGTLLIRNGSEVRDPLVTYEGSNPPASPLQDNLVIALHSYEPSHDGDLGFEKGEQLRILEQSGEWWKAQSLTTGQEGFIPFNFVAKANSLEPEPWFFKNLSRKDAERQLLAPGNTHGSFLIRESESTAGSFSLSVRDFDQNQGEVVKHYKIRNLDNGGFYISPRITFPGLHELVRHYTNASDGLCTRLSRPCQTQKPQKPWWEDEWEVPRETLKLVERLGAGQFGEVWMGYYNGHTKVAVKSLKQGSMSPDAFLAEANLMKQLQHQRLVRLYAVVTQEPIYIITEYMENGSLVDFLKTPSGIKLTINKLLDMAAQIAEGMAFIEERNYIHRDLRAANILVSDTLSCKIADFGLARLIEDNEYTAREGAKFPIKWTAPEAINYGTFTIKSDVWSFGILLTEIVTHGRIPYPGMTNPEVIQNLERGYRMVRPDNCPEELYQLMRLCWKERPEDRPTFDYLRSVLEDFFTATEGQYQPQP
For the next test, the target named is Estrogen receptor beta (Homo sapiens, UniProt Q92731). Conditions: sf9. Note: in other assays of this panel Not Active means under 50% inhibition at 10 µM.
Sequence of Estrogen receptor beta (Q92731 whole entry): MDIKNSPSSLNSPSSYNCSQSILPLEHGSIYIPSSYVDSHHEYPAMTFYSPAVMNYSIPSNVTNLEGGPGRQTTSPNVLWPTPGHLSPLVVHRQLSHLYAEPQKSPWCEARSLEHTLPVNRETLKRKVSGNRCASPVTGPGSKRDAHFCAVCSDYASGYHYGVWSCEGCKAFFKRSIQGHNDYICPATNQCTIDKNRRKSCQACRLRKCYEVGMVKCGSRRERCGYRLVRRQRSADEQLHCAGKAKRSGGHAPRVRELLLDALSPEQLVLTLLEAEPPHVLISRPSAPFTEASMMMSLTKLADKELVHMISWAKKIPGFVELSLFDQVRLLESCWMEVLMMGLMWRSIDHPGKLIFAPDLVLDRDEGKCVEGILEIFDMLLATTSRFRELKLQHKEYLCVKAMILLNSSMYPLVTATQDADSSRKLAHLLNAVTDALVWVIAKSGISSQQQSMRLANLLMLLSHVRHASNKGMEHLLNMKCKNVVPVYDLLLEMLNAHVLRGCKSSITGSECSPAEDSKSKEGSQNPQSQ

Experimental findings from ChEMBL document CHEMBL1909046, “DrugMatrix in vitro pharmacology data” are described below.

*1 amine or outer side, *2 acyl side, *3 side chain or, on linkers, in order; H or OH if unused. Where a SMILES comes first, the peptide text is derived from it. Bridges are numbered along the chain shown (N, C = ends). Roman numbers before positions name the chains, in order. [ ]: non-standard residue; d: D form. Actinocin(1to9) = Cc1c2oc3c(C)ccc(C(=O)[*:2])c3nc-2c(C(=O)[*:1])c(N)c1=O; NMeV = CN[C@H](C(=O)O)C(C)C; Sar = CNCC(=O)O

As a reminder, the IC50 is the concentration at which inhibition is half-maximal. As a reminder, the Ki is the dissociation constant of the complex between target and ligand, obtained from inhibition or displacement.

Sequence of Melanocortin receptor 3 (P41968 whole entry): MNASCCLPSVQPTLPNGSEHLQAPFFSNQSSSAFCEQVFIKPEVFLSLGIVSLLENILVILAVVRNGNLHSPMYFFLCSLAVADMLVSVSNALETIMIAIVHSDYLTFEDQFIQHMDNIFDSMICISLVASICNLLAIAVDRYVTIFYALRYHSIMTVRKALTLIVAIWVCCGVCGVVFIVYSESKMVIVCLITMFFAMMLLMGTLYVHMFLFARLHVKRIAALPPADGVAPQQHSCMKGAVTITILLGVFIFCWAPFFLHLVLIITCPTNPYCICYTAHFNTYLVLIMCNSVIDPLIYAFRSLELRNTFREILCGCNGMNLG

For `COc1ccc(C[C@H]2NC[C@H](O)[C@H]2OC(C)=O)cc1` [ANISOMYCIN], the IC50 result (in test [1]; against Glycine receptor; in test [2]; at Melanocortin receptor 3; in test [3]; at Estrogen receptor beta) was “Not Active” throughout. The Ki entry (in test [1]; at Glycine receptor; in test [2]; at Melanocortin receptor 3; in test [3]; on Estrogen receptor beta) was “Not Active” throughout.

In the case of `CNNCc1ccc(C(=O)NC(C)C)cc1` [PROCARBAZINE], the IC50 entry (in test [1]; against Glycine receptor; in test [2]; against Melanocortin receptor 3; in test [3]; against Estrogen receptor beta) was “Not Active” each time.

In the case of `Cc1onc(O)c1CC(N)C(=O)O` (racemic) [(R,S)-AMPA], the 50% inhibitory concentration (IC50) entry (in test [1]; at Glycine receptor; in test [2]; at Melanocortin receptor 3; in test [3]; on Estrogen receptor beta) was “Not Active” in each case.

With `Cc1c(O)c(=O)ccn1C` [DEFERIPRONE], the IC50 entry (in test [1]; on Glycine receptor; in test [2]; at Melanocortin receptor 3; in test [3]; on Estrogen receptor beta) was “Not Active” throughout.

Consider `CCn1cc(C(=O)O)c(=O)c2cc(F)c(N3CCNCC3)cc21` [NORFLOXACIN], for which the IC50 entry (in test [1]; against Glycine receptor; in test [2]; against Melanocortin receptor 3; in test [3]; at Estrogen receptor beta) was “Not Active” throughout.

As to `CN(C)CCCN1c2ccccc2Sc2ccc(Cl)cc21` [CHLORPROMAZINE], the IC50 result (against Glycine receptor; in test [2]; in test [3]; at Estrogen receptor beta) was “Not Active” in each case.

As for `CCOC(=O)C1=C(COCCN)NC(C)=C(C(=O)OC)C1c1ccccc1Cl` (configuration not stated) [AMLODIPINE], the IC50 entry (in test [1]; at Glycine receptor; in test [2]; at Melanocortin receptor 3; in test [3]; against Estrogen receptor beta) was “Not Active” in each case.

In the case of `CC1Cc2ccccc2N1NC(=O)c1ccc(Cl)c(S(N)(=O)=O)c1` (configuration not stated) [INDAPAMIDE], the IC50 result (in test [1]; against Glycine receptor; in test [2]; on Melanocortin receptor 3; in test [3]; at Estrogen receptor beta) was “Not Active” throughout.

In the case of LEAD (II) ACETATE, the IC50 entry (in test [1]; on Glycine receptor; in test [2]; on Melanocortin receptor 3; in test [3]; on Estrogen receptor beta) was “Not Active” in each case. Besides, the Ki entry (in test [1]; on Glycine receptor; in test [2]; on Melanocortin receptor 3; in test [3]; at Estrogen receptor beta) was “Not Active” throughout.

Take `Cc1c2oc3c(C)ccc(C(=O)N[C@@H]4C(=O)N[C@H](C(C)C)C(=O)N5CCC[C@H]5C(=O)N(C)CC(=O)N(C)[C@@H](C(C)C)C(=O)O[C@@H]4C)c3nc-2c(C(=O)N[C@@H]2C(=O)N[C@H](C(C)C)C(=O)N3CCC[C@H]3C(=O)N(C)CC(=O)N(C)[C@@H](C(C)C)C(=O)O[C@@H]2C)c(N)c1=O` [DACTINOMYCIN] (I: T[dV]P[Sar][NMeV] / II: T[dV]P[Sar][NMeV]; ester I:1-I:C, II:1-II:C; linker I:N-II:N via Actinocin(1to9)): the IC50 result (in test [1]; against Glycine receptor; in test [2]; against Melanocortin receptor 3; in test [3]; on Estrogen receptor beta) was “Not Active” each time.

For the compound `c1ccc(Nc2ccc(Nc3ccccc3)cc2)cc1`, the IC50 entry (in test [1]; at Glycine receptor; in test [2]; on Melanocortin receptor 3; in test [3]; on Estrogen receptor beta) was “Not Active” in each case.

Regarding `NC(=O)N1c2ccccc2CCc2ccccc21`, the IC50 entry (in test [1]; at Glycine receptor; in test [2]; on Melanocortin receptor 3; in test [3]; against Estrogen receptor beta) was “Not Active” in each case.

On to `Cc1onc(-c2ccccc2Cl)c1C(=O)N[C@@H]1C(=O)N2[C@@H]1SC(C)(C)[C@@H]2C(=O)O` [CLOXACILLIN], for which the IC50 result (in test [1]; at Glycine receptor; in test [2]; against Melanocortin receptor 3; in test [3]; against Estrogen receptor beta) was “Not Active” in each case.

Turning to `CCCN1C[C@H](CSC)C[C@@H]2c3cccc4[nH]cc(c34)C[C@H]21` [PERGOLIDE], the IC50 was 2620 nM in test [1] (read-out: IC50); “Not Active” on Glycine receptor; “Not Active” in test [2]; “Not Active” on Melanocortin receptor 3; “Not Active” in test [3]; “Not Active” on Estrogen receptor beta. Further, the Ki in test [1] (read-out: Ki) was 1450 nM.

LIPOPOLYSACCHARIDE E. COLI O55:B5: the IC50 result was “Not Active” in test [1]; “Not Active” against Glycine receptor; “Not Active” in test [2]; “Not Active” against Melanocortin receptor 3; 294 nM in test [3] (read-out: IC50); “Not Active” against Estrogen receptor beta. Also, the Ki result (in test [1]; at Glycine receptor; in test [2]; on Melanocortin receptor 3; at Estrogen receptor beta) was “Not Active” throughout.

For `CC(C)C(Br)C(=O)NC(N)=O` (configuration not stated) [BROMISOVALUM], the IC50 result (in test [1]; at Glycine receptor; in test [2]; at Melanocortin receptor 3; in test [3]; on Estrogen receptor beta) was “Not Active” throughout.

`Cc1ccc(N(CC2=NCCN2)c2cccc(O)c2)cc1` [PHENTOLAMINE]: the IC50 entry (at Glycine receptor; in test [2]; at Melanocortin receptor 3; in test [3]; at Estrogen receptor beta) was “Not Active” throughout.

As for CADMIUM ACETATE, the IC50 entry (in test [1]; against Glycine receptor; in test [2]; against Melanocortin receptor 3; against Estrogen receptor beta) was “Not Active” each time. The Ki result (in test [1]; at Glycine receptor; in test [2]; on Melanocortin receptor 3; at Estrogen receptor beta) was “Not Active” in each case.

For `C[C@H](CCC(=O)O)[C@H]1CC[C@H]2[C@@H]3[C@H](O)C[C@@H]4C[C@H](O)CC[C@]4(C)[C@H]3C[C@H](O)[C@]12C` [CHOLIC ACID], the IC50 entry (in test [1]; at Glycine receptor; in test [2]; on Melanocortin receptor 3; in test [3]) was “Not Active” each time.

Regarding `CC(=O)O[C@@]12CO[C@@H]1C[C@H](O)[C@@]1(C)C(=O)[C@H](O)C3=C(C)[C@@H](OC(=O)[C@H](O)[C@@H](NC(=O)OC(C)(C)C)c4ccccc4)C[C@@](O)([C@@H](OC(=O)c4ccccc4)[C@H]21)C3(C)C.O.O.O` [DOCETAXEL], the IC50 result (in test [1]; against Glycine receptor; in test [2]; against Melanocortin receptor 3; in test [3]) was “Not Active” throughout.

Take `N=C(N)NCCN1CCCCCCC1` [GUANETHIDINE]: the IC50 result (in test [1]; at Glycine receptor; in test [2]; against Melanocortin receptor 3; in test [3]) was “Not Active” throughout.

For the compound `CNCCc1ccccn1` [BETAHISTINE], the IC50 result (in test [1]; at Glycine receptor; in test [2]; against Melanocortin receptor 3; in test [3]) was “Not Active” throughout.

As to `CC(C)(Oc1ccc(Cl)cc1)C(=O)O` [CLOFIBRIC ACID], the IC50 entry (in test [1]; on Glycine receptor; in test [2]; on Melanocortin receptor 3; in test [3]) was “Not Active” each time.
